These results are taken from article PMC4026539, “Improved Photodynamic Efficacy of Zn(II) Phthalocyanines via Glycerol Substitution” (PLoS ONE, 2014).

Series [1] concerns CAM vasculature. Nature of the series: PDT-induced vascular occlusion in CAM model. Format: in vivo, Lohmann Brown chicken. The settings on record: for Occlusion score: 10 nmol/embryo i.v., mean ± SEM of ten embryos, scale of Table 1. As to the method:
Freshly fertilized eggs from Lohmann Brown chicken variety (Hong Hing Sdn. Bhd, Selangor, Malaysia) were incubated with the narrow apex down in a 90° swinging Octagon 40DX incubator (Brinsea Products Inc., Standford, England) at 37°C and 65% relative humidity. On embryo development day (EDD) three, an eggshell opening of about 4 mm in diameter was bored at the apex and sealed with adhesive tape to avoid contamination and desiccation of the egg contents. The eggs were further incubated in stationary position with the apex upright until ready for use at EDD-9.
For vascular occlusion study, the egg opening was extended to ∼30 mm in diameter on EDD-9. Embryos were intravenously administered with a single bolus of 10 nmol/embryo of phthalocyanine in dosing vehicle (5% CrEL, 5% EtOH in saline) at the CAM main vasculature. One min after injection, a site with blood vessel diameter between 5–100 µm was irradiated with a light dose of 5 J/cm^2 or 10 J/cm^2. Irradiation was performed with light of 600–800 nm wavelength with a fluence rate of 11.5 mW/cm^2 over an irradiation area of 1.13 mm^2. Fluorescence angiograms were performed immediately to assess the PDT-induced vasculature damage. Blood vessels were perfused with 20 µl of 25 mg/ml FITC-dextran followed by injection of Indian ink into the extra-embryonic cavity to decrease the embryo’s interfering fluorescence from deeper located vessels. The vasculature network at the site of irradiation was illuminated by exciting FITC at 465–496 nm wavelengths on the fluorescence microscope. The vasculature network was imaged and the extent of damage induced by PDT was scored using a previously defined arbitrary damage scale from 1 to 5 as listed in Table 1 [26]. Generally, the damage on smaller vessels would have lower score whereas the damage on larger blood vessels would have higher score, depending on the size and degree of damage that was caused. At least 10 embryos were assessed for each treatment group.

For series [2], the system named is HSC-2 human oral squamous carcinoma cell line. Put plainly: In vitro phototoxicity assay (MTT). Format: cell-based. As to conditions: 2 h incubation, MTT after 48 h. Here is the method:
(§1) MCF-7 human breast carcinoma and HCT-116 cells human colon carcinoma cell lines were obtained from American Tissue Culture Collection (Virginia, USA), whereas HSC-2 human oral squamous carcinoma cell line was purchased from Health Science Research Resources Bank, (Osaka, Japan). Approximately 3000–4000 cells/well were seeded in 96-well plate and incubated overnight for cell adherence and growth. Cells were then treated with phthalocyanines 1, 2, 3 or ZnPcS4 with concentrations ranging from 0.01 to 100 µM and were incubated for 2 h before irradiated with 4.0 J/cm^2 of light filtered with Roscolux #26 Light Red (>580 nm) (Rosco, NY) membrane filter at a fluence rate of 7.5 mW/cm^2 for 10 min. Illumination was performed in the presence of photosensitizer in the media. The cells were further incubated for 48 h before cell viability was assessed by the MTT assay. For MTT assay, 20 µl of MTT solution (5 mg/ml) were added to each well and incubated for 4 h. The medium was removed and replaced with 100 µl of DMSO to dissolve the formazan crystal formed and the absorbance was read at 570 nm with a microplate reader. The percentage of cell viability was determined relative to untreated control and the half maximal inhibitory concentration (IC50) values were determined. Dark toxicity for each phthalocyanine was also determined in parallel.

The test system of series [3] is HCT-116 cells human colon carcinoma. Put plainly: In vitro phototoxicity assay (MTT). The settings on record: 2 h incubation, MTT after 48 h. Format: cell-based. As to the method:
as §1

Series [4] deals with MCF-7 human breast carcinoma. Nature of the series: In vitro phototoxicity assay (MTT). It counts as cell-based. As to conditions: 2 h incubation, MTT after 48 h. Here is the method: as §1
The nature of series [5]: Log P partition coefficient, shake-flask method. Format: physicochemical. As to conditions: Octanol-1/H2O, room temperature. Here is the method:
Phthalocyanines were prepared in presaturated Octanol-1 (Oct) or H2O depending on their solubility (ZnPcS4, phthalocyanines 1 and 2 in H2O; phthalocyanine 3 in Oct) with concentrations ranging from 1–20 µM. […] The glass tube was left to stand for 1–2 h at room temperature. The absorbance of the phthalocyanine was measured before addition of the other solvent and also after incubation. To obtain log P value, calculations were done using the formula: log P = log [COct/CH2O] where, COct and CH2O represent concentrations of phthalocyanine in Oct and H2O, respectively. Partition coefficient (log P) is defined as the ratio of concentrations of a dissolved substance in a two-phase system consisting of two immiscible solvents e.g. n-octanol and water at equilibrium. It reflects the level of hydrophilicity and hydrophobicity of a compound, which determines the permeability of the compound across the lipid bilayers of cell membrane. In this study, the log P values of the phthalocyanines were measured using the shake-flask method.

In series [6] the test system is HSC-2 cells. Put plainly: Cellular uptake study by flow cytometry. Format: cell-based, human. The settings on record: 10 µM. Here is the method:
HSC-2 cells were plated overnight in 6-well plates (1×10^5 cells/well) in MEM media. Cells were incubated with 10 µM of phthalocyanine 1, 2, 3 or ZnPcS4 for various time intervals. Following incubation, cells were washed twice with PBS, collected by trypsinization and resuspended in phenol red-free MEM media. The mean fluorescence signal for 10 000 cells were analyzed using FACSCalibur flow cytometer (Becton Dickinson, NJ) with FL4 channel (excitation 635 nm, bandpass filter 661/16 nm) and data collected were translated into relative concentration using the formula F = k * QE * Po * (2.303 *ε * b * c). All assays were performed in triplicates. F = measured fluorescence intensity, k = geometric instrumental factor, QE = quantum efficiency (ratio of photons being emitted to photons being absorbed) and Po = radiant power of the excitation source (wavelength-dependent molar absorptivity coefficient). b and c are as being used in the Beer-Lambert law, where b = path length, and c = concentration of the analyte.
Background: In flow cytometry, cells or beads pass a laser one at a time.

Details of series [7]: method as in earlier work. As to conditions: in DMSO; reference standard value; cited from earlier work.
Series [8] can be described thus: UV-visible absorption spectra in different solvents. It counts as physicochemical. Set-up: λmax: unit not given beside the values. As to conditions: 10 µM. As to the method:
The UV-visible (10 µM) and fluorescence emission spectra (5 µM) of phthalocyanines in different solvents were measured using SpectraMax M4 microplate reader (Molecular Devices, CA). UV-visible spectra were collected for wavelengths ranging from 350–800 nm and molar extinction coefficient (ε) for each compound was determined. Meanwhile, the fluorescence emission spectra of the compounds were recorded at 650–800 nm following excitation at their respective maximal absorption (λmax). The fluorescence quantum yields (φF) were calculated by using the following formula: φF = φFstd (F×Astd)/[…] where, F and Fstd refer to the area under the fluorescence curve of sample and standard, respectively. A and Astd refer to the absorbance of sample and standard compound at their excitation wavelengths respectively. ZnPcS4 with φFstd = 0.07 (DMSO) was used as reference.

In series [9] the test system is MCF-7, HCT-116 and HSC-2 cancer cell-lines. Put plainly: In vitro phototoxicity assay (MTT), panel of cancer cell lines. Format: cell-based, human. The settings on record: 4.0 J/cm^2. Here is the method:
as §1, with “Cells were then treated with phthalocyanines 1, 2, 3 or ZnPcS4 with concentrations ranging from 0.01 to 100 µM and were incubated for 2 h before irradiated with 4.0 J/cm^2 of light filtered with Roscolux #26 Light Red (>580 nm) (Rosco, NY) membrane filter at a fluence rate of 7.5 mW/cm^2 for 10 min.” left out

On the set-up of series [10]: method as in PMID 11883602. As to conditions: in alcohol; reference standard; cited from earlier work.

In the case of “tetrasulfonated zinc (II) phthalocyanine [ZnPcS4]”, the Occlusion score in series [1] (5 J/cm^2, 600–800 nm) turned out to be 0 ± 0.0; in series [1] (10 J/cm^2, 600–800 nm), 0 ± 0.2. Besides, the “vascular occlusion effect (in words)” value is given as “failed to demonstrate vascular occlusion effects” in [1] (10 nmol/embryo, 5 J/cm^2) and “no detectable vascular occlusion” in [1] (similar experimental conditions, light dose not stated at the place (abstract)). The IC50 in series [2] (0 J/cm^2 (dark toxicity)), in series [2] (4.0 J/cm^2 (>580 nm)), in series [3] (0 J/cm^2 (dark toxicity)), in series [3] (4.0 J/cm^2 (>580 nm)), in series [4] (0 J/cm^2 (dark toxicity)) and in series [4] (4.0 J/cm^2 (>580 nm)) was more than 100 µM in each case. Besides, the “log P” value in series [5] was −1.7±0.4. Besides, the “cellular uptake (in words)” value in series [6] is reported as “poorly taken up by cells”. For the same compound, in series [7], the “φF (fluorescence quantum yield)” value is recorded as 0.07. Further, the ε was 114 000 M^−1cm^−1 in series [8] (DMSO), 27 000 M^−1cm^−1 in [8] (Ethanol), 20 000 M^−1cm^−1 in series [8] (PBS+2% Triton x-100) and 23 000 M^−1cm^−1 in [8] (PBS). The λmax is 676 in [8] (DMSO), 666 in series [8] (Ethanol), 606 in [8] (PBS+2% Triton x-100) and 606 in [8] (PBS). Besides, the “phototoxicity IC50, range over MCF-7, HCT-116 and HSC-2” value in series [9] (tested up to 100 µM) is given as “failed to yield determinable IC50 values”. Further, the “loss of cell viability” value in [9] (treatment concentrations of up to 100 µM) is “no significant loss of cell viability”.
In the case of `C=Cc1c(C)c2cc3nc(c4c5[nH]c(cc6nc(cc1[nH]2)C(C)=C6CC)c(C)c5C(=O)[C@@H]4C(=O)OC)[C@@H](CCC(=O)O)[C@@H]3C` [Pha, pheophorbide a], the “singlet oxygen quantum yield” value in series [10] is recorded as 0.52.

One may read the IC50 as the concentration that gives 50% inhibition. The log P is a log measure of how a compound divides between an organic and an aqueous phase.
